Data set [1] is described as follows: Stability of vancomycin injection, HPLC relevant substances. The data set is classed as physicochemical. The settings on record: injection study, 0 day. Here is the method: (§1) The embodiments are intended to facilitate understanding of the invention and should not be deemed as a limitation to the invention. • HPLC analysis conditions of the following embodiments were: • Chromatographic column: Welch Ultimate XB-C18 (250×4.6 mm, 5 μm) • Detection wavelength: 280 nm; • Column temperature: 30° C.; • Flow rate: 2.0 mL/min; • Injection volume: 20 μL; • Mobile phase: • Solution A: 4.0 mL of triethylamine was precisely measured, and water was added to bring the total volume to 2000 mL, and the pH of the solution was further adjusted to 3.20 with phosphoric acid; • Solution B: Acetonitrile-tetrahydrofuran-solution A=55−10−935, the pH was adjusted to 3.20 with phosphoric acid; • Solution C: acetonitrile-tetrahydrofuran-solution A=290−10−700, the pH was adjusted to 3.20 by phosphoric acid; • Elution gradient: […]
After being placed under accelerated conditions of 25° C./60% RH for 30 days, relevant substances were sampled and detected.

Data set [2] is described as follows: Stability of vancomycin eye drops, HPLC relevant substances. It counts as physicochemical. The following applies: eye drops study, 0 day. Here is the method: as §1
After being placed under accelerated conditions of 25° C./60% RH for 30 days, relevant substances were sampled and detected. The result is shown in Table 7, the percentage of impurities peak area is calculated by peak area normalization method.

The nature of data set [3]: PK test of vancomycin injection. The data set is classed as in vivo. The settings on record: SD rats following a single intrathecal dose; range over G1-G3. Here is the method: Nine male SD rats were divided into three groups. […] Plasma samples were collected at 0.083, 0.167, 0.25, 0.5, 1, 2, 4, 6, 8, 12, and 24 h post-dosing in each group. The concentration of vancomycin in plasma samples was detected using an established LC-MS/MS method.

Vancomycin hydrochloride: in data set [1], the CDP-1 was found to be 0.32%, the RS2 turned out to be 0.55% and the “Vancomycin HCl” value worked out at 95.19%. In data set [2], the CDP-1 came out at 0.32%, the RS2 stood at 0.53% and the “Vancomycin HCl” value is reported as 95.81%. Also, the “elimination half-life (T½)” value in data set [3] fell in the range of 40.7 to 50.5 min.
